Common to all, as to assay type: biochemical
In experiment [1] the target is T1, Recombinant human LOXL2 (lysyl oxidase like 2) (Homo sapiens, UniProt Q9Y4K0).
T1 construct: purchased R&D systems
T1 sequence (Q9Y4K0 26-774): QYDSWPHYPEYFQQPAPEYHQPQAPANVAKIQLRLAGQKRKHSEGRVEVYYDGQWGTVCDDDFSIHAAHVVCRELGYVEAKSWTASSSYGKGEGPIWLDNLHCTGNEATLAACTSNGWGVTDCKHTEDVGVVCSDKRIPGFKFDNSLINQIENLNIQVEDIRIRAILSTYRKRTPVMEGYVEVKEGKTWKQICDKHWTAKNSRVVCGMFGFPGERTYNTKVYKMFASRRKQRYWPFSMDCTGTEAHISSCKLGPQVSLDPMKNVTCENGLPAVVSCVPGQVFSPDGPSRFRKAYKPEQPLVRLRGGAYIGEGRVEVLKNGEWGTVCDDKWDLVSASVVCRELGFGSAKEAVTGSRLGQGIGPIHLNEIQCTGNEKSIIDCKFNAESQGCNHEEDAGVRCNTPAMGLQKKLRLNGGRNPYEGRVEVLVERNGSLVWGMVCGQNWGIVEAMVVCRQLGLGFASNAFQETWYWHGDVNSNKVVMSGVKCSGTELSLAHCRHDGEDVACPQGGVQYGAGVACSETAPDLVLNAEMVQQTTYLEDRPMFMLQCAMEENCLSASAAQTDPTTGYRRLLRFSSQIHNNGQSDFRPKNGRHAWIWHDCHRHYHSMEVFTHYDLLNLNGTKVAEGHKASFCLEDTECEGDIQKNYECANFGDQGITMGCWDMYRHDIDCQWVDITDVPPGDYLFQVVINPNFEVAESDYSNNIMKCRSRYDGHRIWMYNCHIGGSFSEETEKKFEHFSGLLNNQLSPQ
Kind of experiment: LOXL2 inhibition assay, fluorometric (cadaverine / HRP / Amplex Red). Conditions: recombinant human LOXL2 130 nM; 30 min preincubation at 37° C.; 2.5 mM cadaverine; read-out: Activity Range LOXL2. The essentials: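 Recombinant human LOXL2 or LOXL3 in 1.2 M urea, 50 mM sodium borate pH 8.0, 10 mM CaCl, preincubated with compound 30 min at 37 °C. Cadaverine substrate added; H2O2 detected by HRP/Amplex Red fluorescence, read kinetically for 60 min at 37 °C. Initial-rate slopes, background-subtracted and normalised to DMSO, fitted to a 4-parameter curve with bottom fixed at 0.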

In experiment [2] the target is T2, Recombinant human LOXL3 (lysyl oxidase like 3) (Homo sapiens, UniProt P58215).
T2 construct: purchased R&D systems
T2 sequence (P58215 26-753): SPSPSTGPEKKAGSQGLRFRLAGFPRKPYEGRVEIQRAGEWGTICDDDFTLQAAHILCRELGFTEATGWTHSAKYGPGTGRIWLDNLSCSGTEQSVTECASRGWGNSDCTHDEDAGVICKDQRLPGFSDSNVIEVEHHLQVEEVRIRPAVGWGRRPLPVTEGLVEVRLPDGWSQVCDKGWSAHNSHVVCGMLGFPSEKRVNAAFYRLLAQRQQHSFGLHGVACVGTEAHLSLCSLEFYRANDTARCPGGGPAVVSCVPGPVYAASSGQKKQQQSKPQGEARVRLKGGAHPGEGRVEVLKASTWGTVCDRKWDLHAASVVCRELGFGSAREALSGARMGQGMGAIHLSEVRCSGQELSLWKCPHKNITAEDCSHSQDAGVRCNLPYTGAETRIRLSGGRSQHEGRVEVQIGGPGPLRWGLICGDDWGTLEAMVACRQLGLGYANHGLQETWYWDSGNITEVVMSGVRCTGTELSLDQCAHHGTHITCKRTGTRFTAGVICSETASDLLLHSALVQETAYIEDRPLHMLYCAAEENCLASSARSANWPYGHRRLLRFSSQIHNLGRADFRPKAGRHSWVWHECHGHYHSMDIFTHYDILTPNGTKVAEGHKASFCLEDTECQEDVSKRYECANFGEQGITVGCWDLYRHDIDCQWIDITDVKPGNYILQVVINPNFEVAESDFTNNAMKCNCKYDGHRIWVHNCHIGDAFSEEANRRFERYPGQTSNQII
Kind of experiment: LOXL3 inhibition assay, fluorometric (cadaverine / HRP / Amplex Red). Conditions: recombinant human LOXL3 150 nM; 30 min preincubation at 37° C.; 1 mM cadaverine; read-out: Activity Range LOXL3. The procedure: The ability of compounds to inhibit one or more of the lysyl oxidases LOXL2 and/or LOXL3 was determined using a fluorometric assay. This assay measures the activity of lysyl oxidases by coupling the reaction with horseradish peroxidase-catalyzed […]. The activity assay protocol uses cadaverine as substrate that releases hydrogen peroxide upon transformation by the specific LOX family enzyme present in the sample. Hydrogen peroxide is in turn detected using a red fluorescence substrate for HRP-coupled reactions (Amplex Red Enzyme Assays, Thermo Scientific Fisher). This leads to increase in fluorescence that can be easily detected at Ex/Em=540/590 nm in a fluorescence microplate reader.
Recombinant human LOXL2 (lysyl oxidase like 2) and recombinant human LOXL3 (lysyl oxidase like 3) were purchased from R&D systems and assays were performed in 1.2 M urea, 50 mM sodium borate buffer pH 8.0, and 10 mM CaCl.
5 μl of freshly prepared reaction buffer were delivered to reaction wells. Compounds were resuspended in 100% DMSO at 10 mM and delivered into buffer using acoustic technology (Echo550; nanoliter range). A 3× solution of LOXL2 or LOXL3 in reaction buffer was prepared (“enzyme solution”) and 5 μL of enzyme solution was added into the reaction wells. Buffer only was added to column 1 for no protein control. Reactions were incubated for 30 minutes at 37° C. A 3× mixture of cadaverine, Amplex Red, and HRP (“Substrate/Detection Mix) was prepared and subsequently 5 μL of the mixture added to each reaction well. Progress of reactions was monitored for 60 minutes at 37° C. using Clariostar plate reader (ex 530-12, ems 600-40). For all activity assays, pan-LOX inhibitor CCT365623 (Tang et al, 2017) and LOXL2/LOXL3 inhibitor PAT-1251 (PharmaKea) were included as standards.
For the data analysis, the slope of the linear portion of the progress curve was calculated using Clariostar software. Typical analysis interval was between 8-30 min, but varied between experiments. The background-subtracted signals (No protein wells are considered as background) were converted to % activity relative to DMSO controls. Data was analyzed using GraphPad Prism 4 with “sigmoidal dose-response (variable slope)”; 4 parameters with Hill Slope. Constraints: Bottom=Constant equal to 0. Top=Must be less than 120.

Experiment [3] has as its target T3, Bovine lysyl oxidase (LOX) (Bos taurus, UniProt P33072).
T3 construct: from tissue; host or cells: adult bovine tendon
T3 sequence (P33072 170-418): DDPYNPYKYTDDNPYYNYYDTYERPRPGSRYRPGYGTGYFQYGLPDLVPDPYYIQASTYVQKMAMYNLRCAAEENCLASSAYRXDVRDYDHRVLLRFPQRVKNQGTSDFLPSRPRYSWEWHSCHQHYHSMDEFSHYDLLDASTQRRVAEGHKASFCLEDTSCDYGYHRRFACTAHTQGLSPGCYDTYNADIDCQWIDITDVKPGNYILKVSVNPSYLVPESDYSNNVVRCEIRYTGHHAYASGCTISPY
Briefly: LOX inhibition assay, fluorometric (cadaverine / HRP / Amplex Red). Conditions: LOX extracted from bovine tendon; 30 min preincubation at 37° C.; 5 mM cadaverine; read-out: Activity Range LOX. The method, then: The ability of compounds to inhibit prototypic LOX was determined using a fluorometric assay. This assay measures the activity of lysyl oxidases by coupling the reaction with horseradish peroxidase-catalyzed […]. The activity assay protocol uses cadaverine as substrate that releases hydrogen peroxide upon transformation by prototypic LOX enzyme present in the sample. Hydrogen peroxide was in turn detected using a red fluorescence substrate for HRP-coupled reactions (Amplex Red Enzyme Assays, Thermo Scientific Fisher). This lead to an increase in fluorescence that can be easily detected at Ex/Em=540/590 nm in a fluorescence microplate
Bovine lysyl oxidase (LOX) was extracted by adapting the methodology from [Kagan et al. 1979 and Borel et al. 2001.] from bovine tendon: Frozen adult bovine tendon was placed in room temperature water to defrost, and then membranes were removed and the remaining tissue cut into 1 cm pieces. The material was first passed through a course mesh meat grinder, and this mince was passed through a fine mesh grinder. The mince was homogenized in 10 v/w of buffer (16 mM sodium phosphate buffer pH 7.8, 400 mM NaCl) using a Waring blender. The homogenate was centrifuged at 15,000×g for 15 min at 4° C. After centrifugation, the supernatant was discarded and the pellets resuspended in 10 volumes of the same buffer. The mixture was blended again and centrifuged with the same settings. This time the pellets were blended in 3 volumes of extraction buffer (16 mM sodium phosphate buffer pH 7.8) and left to incubate at 4° C. for 2 h. After this time, the slurry was centrifuged with the same settings as described above. The supernatant was used in an ultrafiltration step to remove large proteins by size exclusion through a 30 kDalton filter (EMD Millipore). The filtrate was mixed with DEAE Sephadex (GE Healthcare), or passed over a MonoQ FPLC column. After two washes, one in 16 mM sodium phosphate buffer pH 7.8, 380 mM NaCl, and another in 16 mM sodium phosphate buffer pH 7.8, the proteins were eluted with 16 mM sodium phosphate pH 7.8, 10 μM CuSO4, and 4 M urea. Fractions containing Lox activity were collected and stored frozen at −70° C.
Final concentration in the LOX assay is shown in Table 6 below and performed in a total volume of […].
7 μl of freshly prepared reaction buffer were delivered to reaction wells. Compounds were resuspended in 100% DMSO at 10 mM and delivered into buffer using acoustic technology (Echo550; nanoliter range). A 2.85× solution of LOX protein in reaction buffer was prepared (“LOX solution”) and 7 μl of LOX solution was added into the reaction wells. Buffer only was added to column 1 for no protein control. Reactions were incubated for 30 minutes at 37° C. A 3.33× mixture of cadaverine, Amplex Red, and HRP (“Substrate/Detection Mix) was prepared and subsequently 6 μL of the mixture was added to each reaction well. Progress of reactions was monitored for 120 minutes at 37° C. using Clariostar plate reader (ex530-12, ems 600-40). For all activity assays, pan-LOX inhibitor CCT365623 (Tang et al, 2017) and LOXL2/LOXL3 inhibitor PAT-1251 (PharmaKea) were included as standards.
The slope of the linear portion of the progress curve was calculated using Clariostar software. Typical analysis interval was between 20-50 min, but varied between experiments. The background subtracted signals (No protein wells were considered as background) were converted to % activity relative to DMSO controls. Data was analyzed using GraphPad Prism 4 with “sigmoidal dose-response (variable slope)”; 4 parameters with Hill Slope. Constraints: Bottom=Constant equal to 0. Top=Must be less than 120.

A value given as a limit tells only on which side of the number the result lay.

The source of these data is patent US12016864B2, “LOX enzyme inhibiting methods and compositions” (ANOVIA BIOSCIENCES, INC., priority 2021, dated 2024).

As to `NCc1ccnc(OC[C@@H]2C[C@@H](C3CCCCC3)CN2S(=O)(=O)N2CCOCC2)c1` [Example 239T, trans-(2-((4-Cyclohexyl-1-(morpholinosulfonyl)pyrrolidin-2-yl)methoxy)pyridin-4-yl)methanamine 2,2,2-trifluoroacetate], the IC50 in experiment [1] and in experiment [2] was at most 500 nM in each case.

On to `NCc1ccnc(OC[C@@H]2C[C@H](C3CCCCC3)CN2S(=O)(=O)N2CCOCC2)c1` (relative stereo) [Example 239, cis-(2-((4-Cyclohexyl-1-(morpholinosulfonyl)pyrrolidin-2-yl)methoxy)pyridin-4-yl)methanamine 2,2,2-trifluoroacetate], for which the IC50 in experiment [1] and in experiment [2] was at most 500 nM each time.

On to `NCc1ccnc(OC[C@@H]2C[C@H](C3CCCCC3)CN(S(=O)(=O)N3CCS(=O)(=O)CC3)C2)c1` (racemic) [Example 235, cis-4-((3-(((4-(Aminomethyl)pyridin-2-yl)oxy)methyl)-5-cyclohexylpiperidin-1-yl)sulfonyl)thiomorpholine 1,1-dioxide 2,2,2-trifluoroacetate], for which the results for the IC50 in experiment [1] and in experiment [2] were at most 500 nM and 500 to 1000 nM, respectively.

`NCc1ccc(S(=O)(=O)C[C@@H]2C[C@H](c3ccc(F)cc3)CN2S(=O)(=O)N2CCOCC2)s1` (racemic) [Example 208, cis-(5-(((4-(4-Fluorophenyl)-1-(morpholinosulfonyl)pyrrolidin-2-yl)methyl)sulfonyl)thiophen-2-yl)methanamine 2,2,2-trifluoroacetate]: the IC50 in experiment [3] and in experiment [1] was at most 500 nM throughout.
